Values joined by “and” are separate entries in the source; they are usually repeats but may differ in a detail not shown here. Identical values can stand only once.
Experiments:
KDR = KDR (Homo sapiens, UniProt P35968); conditions: compound conc. 1000 nM
[1] = biological target: T1, human KDR (VEGF-receptor-2) (Homo sapiens, UniProt P35968); test: KDR kinase enzyme assay (DELFIA, KDR-IC-Flag, poly(Glu4-Tyr) peptide); type: biochemical; conditions: ATP conc. 10 μM
T1 construct: beginning at Met-806; (5′-ATG GAT CCA GAT GM CTC CCA TTG) and ending at Val-1356; made in house
T1 sequence (P35968 806-1356): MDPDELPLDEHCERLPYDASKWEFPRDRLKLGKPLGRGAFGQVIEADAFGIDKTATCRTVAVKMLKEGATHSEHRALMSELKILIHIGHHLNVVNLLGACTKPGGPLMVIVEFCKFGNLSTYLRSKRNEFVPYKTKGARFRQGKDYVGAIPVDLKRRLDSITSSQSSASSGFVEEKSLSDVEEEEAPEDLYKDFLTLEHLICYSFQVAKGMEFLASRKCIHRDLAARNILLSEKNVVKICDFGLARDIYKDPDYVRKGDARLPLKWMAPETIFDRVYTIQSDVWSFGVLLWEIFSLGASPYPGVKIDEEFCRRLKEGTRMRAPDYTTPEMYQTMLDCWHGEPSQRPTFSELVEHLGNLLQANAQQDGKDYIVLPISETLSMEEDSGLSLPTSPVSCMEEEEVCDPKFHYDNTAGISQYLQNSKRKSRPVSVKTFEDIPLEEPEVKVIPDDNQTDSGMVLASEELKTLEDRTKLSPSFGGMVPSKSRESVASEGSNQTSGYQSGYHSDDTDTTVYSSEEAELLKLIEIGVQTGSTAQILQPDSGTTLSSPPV

[2] = biological target: T1, human KDR (VEGF-receptor-2); test: KDR kinase enzyme assay wash-out experiments (irreversible inhibition); type: biochemical
Protocol: To determine if compounds bound irreversibly to enzyme, plates were washed after the enzyme plus compound pre-incubation step and prior to the addition of ATP. Parallel plates were tested wherein one plate was processed exactly as above while a second plate was washed three times in 100 μl of 4 mM HEPES, pH 7.4, to remove unbound compound. 1× Kinase buffer (30 μl of 1 mM MnCl2, 4 mM HEPES, pH 7.4, 20 μM Na3VO4) and 20 μl of ATP/MgCl2 were added to the wash-out plate. Detection of phosphotyrosinylated peptide for both plates was performed as described above.
For each inhibitor shown in Table 2, two IC50 determinations are shown, one under normal conditions and the other where an intermediate wash-out step is carried out. […] If there was a large increase in the IC50 value in the wash-out experiment compared to the experiment where there was no wash-out, then it was determined that the compound was behaving as a conventional reversible binding inhibitor.

[3] = test system: Human umbilical vein endothelial cells (HUVEC); test: HUVEC proliferation assay, VEGF-dependent growth ([3H]-thymidine incorporation); type: cell-based
Method in brief: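 HUVEC seeded 4000 cells/well, attached overnight, then given compound in serum/VEGF-free EBM plus 50 ng/ml VEGF (final); parallel plates used EGM2 with 2% serum lacking VEGF. Incubation 4-5 days at 37° C. DNA synthesis measured by 5 h [3H]-thymidine (1 μCi/well) incorporation, scintillation-counted.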

Chain of KDR (P35968 20-1356): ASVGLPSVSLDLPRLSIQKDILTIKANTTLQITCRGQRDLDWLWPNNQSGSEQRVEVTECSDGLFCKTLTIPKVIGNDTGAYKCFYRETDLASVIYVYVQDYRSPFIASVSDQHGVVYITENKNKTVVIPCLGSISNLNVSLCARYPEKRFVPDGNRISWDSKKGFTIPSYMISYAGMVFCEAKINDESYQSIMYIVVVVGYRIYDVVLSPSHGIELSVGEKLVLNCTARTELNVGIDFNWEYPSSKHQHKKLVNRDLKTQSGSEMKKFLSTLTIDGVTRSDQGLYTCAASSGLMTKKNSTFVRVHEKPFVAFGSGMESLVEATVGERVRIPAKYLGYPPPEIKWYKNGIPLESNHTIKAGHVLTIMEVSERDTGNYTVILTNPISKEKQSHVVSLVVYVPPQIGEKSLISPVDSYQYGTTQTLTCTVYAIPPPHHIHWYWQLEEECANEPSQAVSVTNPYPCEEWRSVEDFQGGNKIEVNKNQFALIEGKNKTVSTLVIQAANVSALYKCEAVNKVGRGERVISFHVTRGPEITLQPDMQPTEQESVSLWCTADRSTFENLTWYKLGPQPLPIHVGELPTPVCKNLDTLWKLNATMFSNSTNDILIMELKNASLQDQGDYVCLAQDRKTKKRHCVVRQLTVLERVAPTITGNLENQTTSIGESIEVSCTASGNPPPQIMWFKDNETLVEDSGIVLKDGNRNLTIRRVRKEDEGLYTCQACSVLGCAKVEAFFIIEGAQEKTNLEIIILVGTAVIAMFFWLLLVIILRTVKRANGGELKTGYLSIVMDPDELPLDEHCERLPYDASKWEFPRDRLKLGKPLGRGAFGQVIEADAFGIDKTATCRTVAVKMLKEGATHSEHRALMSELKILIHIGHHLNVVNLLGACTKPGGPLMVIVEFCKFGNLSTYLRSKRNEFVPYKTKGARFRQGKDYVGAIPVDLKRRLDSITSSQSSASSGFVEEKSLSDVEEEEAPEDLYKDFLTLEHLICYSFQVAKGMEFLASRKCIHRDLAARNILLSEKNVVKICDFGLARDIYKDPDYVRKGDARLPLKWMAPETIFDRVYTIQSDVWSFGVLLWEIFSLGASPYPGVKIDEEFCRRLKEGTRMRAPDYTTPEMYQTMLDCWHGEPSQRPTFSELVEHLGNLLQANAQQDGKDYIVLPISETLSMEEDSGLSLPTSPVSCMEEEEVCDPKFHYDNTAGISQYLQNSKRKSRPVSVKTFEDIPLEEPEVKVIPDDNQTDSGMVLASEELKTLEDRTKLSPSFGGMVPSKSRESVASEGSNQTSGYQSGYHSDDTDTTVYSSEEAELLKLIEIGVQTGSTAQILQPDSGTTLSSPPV

% Inhibition of KDR kinase autophosphorylation in KDR15 cells (KDR): 61% | IC50 [1]: 147 nM and 95.9 nM and 406 nM | IC50 ([2]; no wash): 147 nM and 95.9 nM | IC50 ([2]; wash out): 514 nM and 150 nM | melting point: 197 to 198 °C
SMILES: COCCOc1cc2ncnc(NC3=CC(=O)C(N(C)c4ccc(OC)cc4)=CC3=O)c2cc1OC [Example 78, 2-{[6-methoxy-7-(2-methoxyethoxy)quinazolin-4-yl]amino}-5-[(4-methoxyphenyl)(methyl)amino]benzo-1,4-quinone]
inhibition at 0.1 µM ([3]; Homo sapiens, HUVEC, conc. 100 nM): 6% | % Inhibition of VEGF-dependent growth of HUVEC ([3]; conc. 100 nM): 9% | % Inhibition of VEGF-dependent growth of HUVEC ([3]; conc. 10000 nM): 94% and 99% and 74%

From patent US20070299092A1 (Wyeth, priority 2004, published 2007)
